Laboratory results taken from patent US8450525B2, “Histone deacetylase inhibitors” (Orchid Chemicals & Pharmaceuticals Limited, priority 2007, dated 2013).
pIC50: −log10 of the molar value.

Columns and labels:
HCT 116 (colon) cells = test: Anti-cancer screen, growth inhibition (MTT); assay type: cell-based; settings: Homo sapiens, HCT-116 cells, 48 hours of incubation
Procedure, shortened: (§1)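 MTT added for 3 h at 37° C, formazan dissolved in DMSO and A570 read. A T0 plate was measured at compound addition.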

NCI-H460 (lung) cells = test: Anti-cancer screen, growth inhibition (MTT); assay type: cell-based; settings: Homo sapiens, 48 hours of incubation
Procedure, shortened: as §1

U251 (glioma) cells = test: Anti-cancer screen, growth inhibition (MTT); assay type: cell-based; settings: Homo sapiens, U-251 cells, 48 hours of incubation
Procedure, shortened: as §1

[1] = target: T1, HDAC (Mouse Liver Extract); test: HDAC inhibition assay using Boc-Lys(Ac)-AMC substrate, mouse liver enzyme; assay type: biochemical;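 for pIC50: IC50 for inhibition of HDAC activity in mouse liver extract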
T1 construct: Mouse liver enzyme (10 mg/ml) was diluted 1:6 with HDAC buffer

recombinant HDAC1 enzyme = target: T2, recombinant HDAC1 enzyme (Homo sapiens, UniProt Q13547); test: HDAC1 inhibitory activity, recombinant enzyme; assay type: biochemical; settings: recombinant HDAC1 (BIOMOL); read-out: HDAC1 inhibition (IC50)
T2 construct: purchased BIOMOL, USA
T2 sequence (Q13547 whole entry): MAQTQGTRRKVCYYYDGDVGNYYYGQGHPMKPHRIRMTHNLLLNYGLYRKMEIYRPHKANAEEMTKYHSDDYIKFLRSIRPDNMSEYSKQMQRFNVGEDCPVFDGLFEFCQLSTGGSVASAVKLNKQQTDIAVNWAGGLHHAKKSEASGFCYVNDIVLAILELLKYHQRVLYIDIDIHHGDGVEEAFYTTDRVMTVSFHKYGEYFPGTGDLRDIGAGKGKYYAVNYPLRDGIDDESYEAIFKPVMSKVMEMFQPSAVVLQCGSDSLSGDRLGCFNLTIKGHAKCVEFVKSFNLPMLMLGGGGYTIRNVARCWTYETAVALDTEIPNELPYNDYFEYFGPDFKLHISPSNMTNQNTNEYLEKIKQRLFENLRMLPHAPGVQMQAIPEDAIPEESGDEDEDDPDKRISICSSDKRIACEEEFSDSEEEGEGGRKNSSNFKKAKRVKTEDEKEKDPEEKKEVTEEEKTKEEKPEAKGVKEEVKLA
Description: Assay was done in 96-well black microplate and total volume of the assay was 100 μL. Mouse liver enzyme (10 mg/ml) was diluted 1:6 with HDAC buffer. Enzyme cocktail was made of 10 μL of diluted enzyme and 30 μL of HDAC buffer. 40 μl of enzyme cocktail followed by 10 μL of test compound (1 μM and 10 μM) or buffer (control) was added to each well. The plate was pre-incubated at 37° C. for 5 minutes. The HDAC reaction was started by adding 50 μl of HDAC substrate Boc-Lys (Ac)-AMC (Bachem AG, Switzerland). The plate was incubated at 37° C. for 30 minutes. The reaction was stopped by adding 100 μL of Trypsin stop solution and incubating at 37° C. for 15-30 minutes. Measuring the fluorescence at excitation wavelength of 360 nm and emission wavelength of 460 nm monitored the release of AMC. Buffer alone and substrate alone served as blank. […] (Dennis Wegener et al, Anal. Biochem, 321, 2003, 202-208).
Since the benzamide type compounds are known to have potential for HDAC class 1 specificity, active compounds were tested for HDAC1 inhibitory activity. The assay was carried out, as previously described using recombinant HDAC1 enzyme (BIOMOL, USA) and following manufacturer's instructions.

Structure (SMILES) | GI50 (HCT 116 (colon) cells) [µM] | GI50 (NCI-H460 (lung) cells) [µM] | GI50 (U251 (glioma) cells) [µM] | pIC50 [1] | HDAC Inhibition % (1 μM) [1] [%] | HDAC Inhibition % (10 μM) [1] [%] | pIC50 (recombinant HDAC1 enzyme)
COc1ccc(/C(=C\c2ccc(/C=C/C(=O)Nc3ccccc3N)cc2)C(=O)NC2CC2)cc1OC [Example 74, N-Cyclopropyl-3-(4-((1E)-3-(2-aminophenylamino)-3-oxoprop-1-en-1-yl}phenyl)-2-(3,4-dimethoxyphenyl)acrylamide] | 100 | > 100 | 90 | – | 12.3 | 12.1 | –
COc1cccc(/C(=C\c2ccc(C(=O)Nc3ccccc3N)cc2)C(=O)NC2CC2)c1 [Example 108, N-(2-Aminophenyl)-4-(3-(cyclopropylamino)-2-(3-methoxyphenyl)-3-oxoprop-1-en-1-yl)benzamide] | > 100 | 80 | 82 | – | 39.1 | 61.7 | –
Nc1ccccc1NC(=O)c1ccc(/C=C(/C(=O)NC2CC2)c2ccccc2Cl)cc1 [Example 112, N-(2-Aminophenyl)-4-(3-(cyclopropylamino)-2-(2-chlorophenyl)-3-oxoprop-1-en-1-yl)benzamide] | 6 | 1.1 | 20 | 5.35 | 29.9 | 55.7 | 7.31
O=C(NC1CC1)/C(=C/c1ccc(C(=O)NCc2ccc(C(=O)NO)cc2)cc1)c1ccc(C(F)(F)F)cc1 [Example 158, 4-(3-(Cyclopropylamino)-2-(4-trifluoromethylphenyl)-3-oxoprop-1-en-1-yl)-N-(4-(hydroxycarbamoyl)benzyl)benzamide] | 30 | 25 | 22 | – | 88.7 | 98.0 | –
O=C(/C=C/c1ccc(/C=C(/C(=O)N2CCOCC2)c2ccccc2F)cc1)NO [Example 16] | 2.8 | 2.1 | 11 | 6.46 | 98.1 | 99.9 | –
Cc1ccc(/C(=C\c2ccc(/C=C/C(=O)NCc3ccc(C(=O)NO)cc3)cc2)C(=O)NC2CC2)cc1 [Example 92, 4-(((1E)-3-(4-(3-(Cyclopropylamino)-2-(4-methylphenyl)-3-oxoprop-1-en-1-yl)phenyl)acrylamido)methyl)-N-hydroxybenzamide] | 3 | 0.1 | 24 | 8.77 | 85.8 | 99.7 | –
O=C(/C=C/c1ccc(CNC(=O)c2ccc(/C=C(/C(=O)NC3CC3)c3ccc4c(c3)OCO4)cc2)cc1)NO [Example 147, 4-(3-(Cyclopropylamino)-2-[benzodioxol-5-yl]-3-oxoprop-1-en-1-yl)-N-(4-((E)-3-(hydroxyamino)-3-oxoprop-1-en-1-yl)benzyl)benzamide] | 20 | 95 | 19 | – | 94.6 | 100.0 | –
O=C(/C=C/c1ccc(/C=C(/C(=O)NC2CC2)c2ccccc2)cc1)NCc1ccc(C(=O)NO)cc1 [Example 93, 4-(((1E)-3-(4-(3-(Cyclopropylamino)-2-phenyl-3-oxoprop-1-en-1-yl)phenyl)acrylamido)methyl)-N-hydroxybenzamide] | 35 | 32 | 52 | – | 74.0 | 91.6 | –
O=C(/C=C/c1ccc(C=C(C(=O)NC2CC2)c2cccs2)cc1)NCc1ccc(C(=O)NO)cc1 (stereo in doubt) [Example 94, 4-(((1E)-3-(4-(3-(Cyclopropylamino)-2-(thiophen-2-yl)-3-oxoprop-1-en-1-yl)phenyl)acrylamido)methyl)-N-hydroxybenzamide] | 8 | 20 | 1.8 | > 9.00 | 99.8 | 100 | –

Now those with a lower GI50 (HCT 116 (colon) cells), led by results:

GI50 (HCT 116 (colon) cells) [µM] | GI50 (NCI-H460 (lung) cells) [µM] | GI50 (U251 (glioma) cells) [µM] | pIC50 [1] | HDAC Inhibition % (1 μM) [1] [%] | HDAC Inhibition % (10 μM) [1] [%] | pIC50 (recombinant HDAC1 enzyme) | Structure (SMILES)
0.4 | 5 | 4 | 5.26 | 34.5 | 59.0 | 7.36 | Nc1ccccc1NC(=O)c1ccc(/C=C(/C(=O)NC2CC2)c2cccc(Cl)c2)cc1 [Example 114, N-(2-Aminophenyl)-4-(3-(cyclopropylamino)-2-(3-chlorophenyl)-3-oxoprop-1-en-1-yl)benzamide]
1.1 | 2.1 | 1.5 | 5.10 | 24.8 | 52.2 | 7.00 | Nc1ccccc1NC(=O)c1ccc(/C=C(/C(=O)NC2CC2)c2ccc3c(c2)OCO3)cc1 [Example 111, N-(2-Aminophenyl)-4-(3-(cyclopropylamino)-2-(1,3-benzodioxol-5-yl)-3-oxoprop-1-en-1-yl)benzamide]
2 | 5 | 4.5 | 4.92 | 34.1 | 58.4 | 6.74 | Nc1ccccc1NC(=O)c1ccc(C=C(C(=O)NC2CC2)c2ccccc2)cc1 [Example 107, N-(2-Aminophenyl)-4-(3-(cyclopropylamino)-2-phenyl-3-oxoprop-1-en-1-yl)benzamide]
0.4 | 6.1 | 11 | 5.05 | 32.4 | 55.7 | 7.22 | COc1ccc(/C(=C\c2ccc(C(=O)Nc3ccccc3N)cc2)C(=O)NC2CC2)cc1 [Example 116, N-(2-Aminophenyl)-4-(3-(cyclopropylamino)-2-(4-methoxyphenyl)-3-oxoprop-1-en-1-yl)benzamide]
0.3 | 5.5 | 5 | 5.30 | 45.7 | 71.4 | 6.82 | Nc1ccccc1NC(=O)c1ccc(/C=C(/C(=O)NC2CC2)c2cccc(F)c2)cc1 [Example 110, N-(2-Aminophenyl)-4-(3-(cyclopropylamino)-2-(3-fluorophenyl)-3-oxoprop-1-en-1-yl)benzamide]
0.1 | 6 | 15 | 5.08 | 31.1 | 50.1 | 7.17 | Nc1ccccc1NC(=O)c1ccc(/C=C(/C(=O)NC2CC2)c2ccc(F)c(F)c2)cc1 [Example 115, N-(2-Aminophenyl)-4-(3-(cyclopropylamino)-2-(3,4-difluorophenyl)-3-oxoprop-1-en-1-yl)benzamide]
